# Source: publication PMC11819763, “Activity of Potassium Channel BmK-NSPK Inhibitor Regulated by Basic Amino Acid Residues: Novel Insight into the Diverse Peptide Pharmacology” (Molecules, 2025)
# Where two headings read alike, the source gives them in different places. Positions of bridges follow the written chain, without caps; N, C: chain ends. Residues, ends and D or L forms follow the SMILES beside them.
# Tests used:
# hKv1.1 channel = assay: Whole-cell patch clamp, hKv1.1 channel currents; type: cell-based, human; conditions: 1 μM peptide, mean ± SE, n ≥ 3, SEM
# Source text: (§1) The pRc/CMV-hKv1.3 was kindly provided by Professor Stephan Grissmer (University of Ulm, Ulm, Germany) and Professor Olaf Pongs (Zentrum für Molekulare Neurobiologie der Universität Hamburg, Hamburg, Germany). The cDNAs encoding hKv1.1 and hKv1.2 (from Professor Stephan Grissmer, University of Ulm, Ulm, Germany) were subcloned into the vector pIRES2-EGFP (TaKaRa Clontech, Mountain View, CA, USA). The cDNAs encoding hKv1.6 were subcloned into the vector pcDNA 3.1(+) (TaKaRa Clontech, Mountain View, CA, USA). A QuikChange Site-Directed Mutagenesis Kit (Stratagene, La Jolla, CA, USA) was used to produce the mutants based on the wild-type hKv1.3 channel plasmids. All plasmids and their mutants were verified by DNA sequencing before the expression. The three channel chimeras were, respectively, named by hKv1.3-M1 (425DPTSGFS432 → 425ERESQFP432), hKv1.3-M2 (452HPV456 → 452VPT456) and hKv1.3-M3 (425DPTSGFS432 → 425ERESQFP432, 452HPV456 → 452VPT456).
# (§2) In a 5% CO2 incubator at 37 °C, HEK293T cells were cultured in DMEM medium (Gibco, Grand Island, NY, USA) supplemented with 10% fetal bovine serum and 1% penicillin/streptomycin. Potassium channel plasmids and pEGFP-N1 were co-transfected into the HEK293 cells using the ExFect Transfection Reagent (Vazyme, Nanjin, China). After one day of transfection, the potassium currents were recorded, and the positive cells were selected based on the presence of GFP fluorescence.
# (§3) Whole-cell current measurement and data acquisition were performed using an EPC-10 patch-clamp amplifier controlled by Pulse (HEKA Elektronik, Lambrecht, Germany). The potassium currents were recorded according to the recording protocol for the Kv1 channel, as described in previously published references. Peptides were dissolved in an external solution containing 0.01% BSA for electrophysiological experiments. […]
# [1] = test system: hKv1.3-M2 channel (filter region of hKv1.3 substituted by hKv1.2 region); assay: Whole-cell patch clamp, chimeric hKv1.3-M2 channel currents; type: cell-based, human; conditions: mean ± SE, n ≥ 3, SEM
# Description: Apart from the chimeric hKv1.3-M1, this work further constructed the chimeric hKv1.3-M2 channel, in which the filter region of hKv1.3 channel was substituted by the equivalent region of hKv1.2 channel (Figure 6A). Pharmacological experiments 100 nM and 1 μM MeuKTX were able to inhibit 78.3 ± 4.9% and 95.9 ± 1.3% of hKv1.3-M2 channel currents, respectively, which indicated the minor effect of channel filter region on MeuKTX binding (Figure 6B). However, more significant effects were also observed for BmK-NSPK analogs with different numbers of basic residues.
# as §1, §2
# (§4) Whole-cell current measurement and data acquisition were performed using an EPC-10 patch-clamp amplifier controlled by Pulse (HEKA Elektronik, Lambrecht, Germany). The potassium currents were recorded according to the recording protocol for the Kv1 channel, as described in previously published references. Peptides were dissolved in an external solution containing 0.01% BSA for electrophysiological experiments. The patch pipette solution contained 140 mM KF (Sigma, St. Louis, MC, USA), 2 mM MgCl2 (Sinopharm Chemical Reagent Co., Ltd., Shanghai, China), 1 mM EGTA (Sigma) and 10 mM HEPES (neoFroxx, Einhausen, Hessen, Germany) (pH adjusted to 7.4 with KOH (Sinopharm Chemical Reagent Co., Ltd., Shanghai, China)), and the bath solution contained 4.5 mM KCl, 160 Mm NaCl (Sinopharm Chemical Reagent Co., Ltd., Shanghai, China), 5 mM HEPES, 2 mM CaCl2 (Sinopharm Chemical Reagent Co., Ltd., Shanghai, China) and 1 mM MgCl2 (pH adjusted to 7.4 with NaOH (Sinopharm Chemical Reagent Co., Ltd., Shanghai, China)).
# (§5) Graphing and data analysis were conducted using GraphPad Prism software (Version 8.0, San Diego, CA, USA), ClampFit software (version 10.2, Molecular Devices, Sunnyvale, CA, USA), and SigmaPlot software (version 12.0, IBM SPSS, Chicago, IL, USA). The dose–response relationship between the channel current and peptide inhibition was modeled by the modified Hill equation: Ipeptide/Icontrol = 1/{1 + [peptide]/IC50}, where Ipeptide represents the potassium current under peptide inhibition, Icontrol represents the peak current, IC50 is the half-maximal inhibition concentration and [peptide] represents the peptide concentration. The IC50 was obtained by fitting the Hill equation. Results are presented as mean ± SE, with each sample tested on at least three cells (n ≥ 3).
# hKv1.6 channel = assay: Whole-cell patch clamp, hKv1.6 channel currents; type: cell-based, human; conditions: 1 μM peptide, mean ± SE, n ≥ 3, SEM
# Source text: as §1, §2, §3
# hKv1.2 channel = assay: Whole-cell patch clamp, hKv1.2 channel currents; type: cell-based, human; conditions: 1 μM peptide, mean ± SE, n ≥ 3, SEM
# Source text: as §1, §2, §3
# [2] = test system: hKv1.3-M1 channel (turret domain of hKv1.3 substituted by hKv1.2 region); assay: Whole-cell patch clamp, chimeric hKv1.3-M1 channel currents; type: cell-based, human; conditions: mean ± SE, n ≥ 3, SEM
# Description: In order to further investigate the effect of basic residue number on BmK-NSPK pharmacology, the activities of BmK-NSPK analogs were also tested on the Kv1.3 channel chimeras in this work. […] Based on the weak inhibition potencies of BmK-NSPK-7K and BmK-NSPK-8K towards hKv1.2 channel (Figure 5C,D), the work first constructed the chimeric hKv1.3-M1, in which the turret domain of hKv1.3 channel was substituted by the equivalent region of hKv1.2 channel (Figure 6A). Pharmacological experiments with 100 nM and 1 μM MeuKTX were able to inhibit 45.7 ± 7.9% and 82.8 ± 6.1% of hKv1.3-M1 channel currents, respectively (Figure 6B).
# as §1, §2, §4, §5
# [3] = test system: hKv1.3-M3 channel (turret, pore helix and filter region of hKv1.3 replaced by hKv1.2 regions); assay: Whole-cell patch clamp, chimeric hKv1.3-M3 channel currents; type: cell-based, human; conditions: mean ± SE, n ≥ 3, SEM
# Source text: as §1, §2, §4, §5
# [4] = biological target: human Kv1.3 potassium channel (human) (UniProt P22001)
# Chain of human Kv1.3 potassium channel (human) (P22001 whole entry): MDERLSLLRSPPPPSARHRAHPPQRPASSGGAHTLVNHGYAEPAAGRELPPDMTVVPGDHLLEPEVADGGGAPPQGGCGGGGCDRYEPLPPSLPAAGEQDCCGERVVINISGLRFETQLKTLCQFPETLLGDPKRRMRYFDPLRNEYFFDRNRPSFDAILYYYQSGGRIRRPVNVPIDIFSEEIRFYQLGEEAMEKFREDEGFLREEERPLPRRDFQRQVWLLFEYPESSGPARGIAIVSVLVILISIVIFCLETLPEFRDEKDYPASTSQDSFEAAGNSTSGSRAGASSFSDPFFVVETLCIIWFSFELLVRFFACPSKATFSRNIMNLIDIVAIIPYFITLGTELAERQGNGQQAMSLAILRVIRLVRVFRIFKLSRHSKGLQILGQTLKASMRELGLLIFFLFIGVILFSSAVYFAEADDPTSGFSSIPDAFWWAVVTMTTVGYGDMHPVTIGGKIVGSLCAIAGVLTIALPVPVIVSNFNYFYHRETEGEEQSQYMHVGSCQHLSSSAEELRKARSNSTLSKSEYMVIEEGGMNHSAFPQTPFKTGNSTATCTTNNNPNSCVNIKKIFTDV
# hKv1.1 channel (human) = hKv1.1 channel (human) (UniProt Q09470)
# Chain of hKv1.1 channel (human) (Q09470 whole entry): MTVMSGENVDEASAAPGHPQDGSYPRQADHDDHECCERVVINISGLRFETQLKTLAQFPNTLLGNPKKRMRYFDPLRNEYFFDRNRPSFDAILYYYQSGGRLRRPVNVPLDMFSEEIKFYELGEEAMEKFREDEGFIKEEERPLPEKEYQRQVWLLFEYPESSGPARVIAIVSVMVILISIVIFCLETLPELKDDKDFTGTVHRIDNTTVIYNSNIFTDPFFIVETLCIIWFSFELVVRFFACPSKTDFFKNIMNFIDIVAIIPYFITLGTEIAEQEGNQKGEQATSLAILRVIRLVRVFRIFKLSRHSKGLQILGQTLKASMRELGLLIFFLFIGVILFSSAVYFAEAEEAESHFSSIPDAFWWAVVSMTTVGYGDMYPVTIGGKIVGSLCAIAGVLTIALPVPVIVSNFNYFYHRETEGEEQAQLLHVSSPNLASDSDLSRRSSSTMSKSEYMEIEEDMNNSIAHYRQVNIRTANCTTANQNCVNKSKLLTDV
# hKv1.2 channel (human) = hKv1.2 channel (human) (UniProt P16389)
# Chain of hKv1.2 channel (human) (P16389 whole entry): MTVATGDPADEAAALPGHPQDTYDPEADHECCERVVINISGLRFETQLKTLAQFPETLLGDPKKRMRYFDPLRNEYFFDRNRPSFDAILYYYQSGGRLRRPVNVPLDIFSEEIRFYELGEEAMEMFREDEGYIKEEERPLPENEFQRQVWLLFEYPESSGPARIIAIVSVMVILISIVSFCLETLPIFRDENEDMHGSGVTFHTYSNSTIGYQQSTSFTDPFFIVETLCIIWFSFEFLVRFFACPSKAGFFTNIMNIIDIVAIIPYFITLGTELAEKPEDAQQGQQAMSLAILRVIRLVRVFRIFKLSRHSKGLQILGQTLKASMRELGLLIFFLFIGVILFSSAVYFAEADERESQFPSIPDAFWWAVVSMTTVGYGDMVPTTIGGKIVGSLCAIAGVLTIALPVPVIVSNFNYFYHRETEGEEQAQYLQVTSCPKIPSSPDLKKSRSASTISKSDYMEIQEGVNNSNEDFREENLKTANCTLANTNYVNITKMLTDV
# hKv1.6 channel (human) = hKv1.6 channel (human) (UniProt P17658)
# Chain of hKv1.6 channel (human) (P17658 whole entry): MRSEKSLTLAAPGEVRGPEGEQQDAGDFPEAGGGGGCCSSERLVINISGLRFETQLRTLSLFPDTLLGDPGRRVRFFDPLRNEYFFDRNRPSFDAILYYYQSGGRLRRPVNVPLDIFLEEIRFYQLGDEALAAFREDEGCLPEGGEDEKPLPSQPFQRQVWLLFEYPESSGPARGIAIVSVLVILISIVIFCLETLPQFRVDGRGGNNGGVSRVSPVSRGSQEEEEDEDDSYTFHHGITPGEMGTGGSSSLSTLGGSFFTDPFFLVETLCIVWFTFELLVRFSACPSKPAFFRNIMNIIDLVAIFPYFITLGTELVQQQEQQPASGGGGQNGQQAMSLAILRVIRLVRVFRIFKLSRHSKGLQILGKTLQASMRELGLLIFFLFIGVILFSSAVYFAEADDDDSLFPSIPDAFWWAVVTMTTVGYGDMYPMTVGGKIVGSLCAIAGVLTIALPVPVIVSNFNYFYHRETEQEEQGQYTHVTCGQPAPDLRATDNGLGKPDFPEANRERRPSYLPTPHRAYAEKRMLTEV
# [5] = biological target: human Kv1.3 potassium channel (human) (UniProt P22001); remark: listed apart in the source
# Chain of KTX-3 peptide (P59290 whole entry): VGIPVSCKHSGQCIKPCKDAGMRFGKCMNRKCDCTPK
# Chain of KTX-2 peptide (P45696 23-59): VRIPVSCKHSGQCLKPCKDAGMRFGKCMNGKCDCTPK
compound,measurement,setting,value
"CC[C@H](C)[C@H](NC(=O)CNC(=O)[C@@H](N)C(C)C)C(=O)N[C@@H](CC(N)=O)C(=O)N[C@H](C(=O)N[C@@H](CCCCN)C(=O)N[C@H]1CSSC[C@@H]2NC(=O)[C@H](CCCCN)NC(=O)CNC(=O)[C@H](Cc3ccccc3)NC(=O)[C@H](CCCNC(=N)N)NC(=O)[C@H](CCSC)NC(=O)CNC(=O)[C@H](C)NC(=O)[C@H](CC(=O)O)NC(=O)[C@H](CCCCN)NC(=O)[C@@H]3CSSC[C@@H](C(=O)N[C@H](C(=O)N4CCC[C@H]4C(=O)N[C@@H](CCCCN)C(=O)O)[C@@H](C)O)NC(=O)[C@H](CC(=O)O)NC(=O)[C@H](CSSC[C@H](NC(=O)[C@H](CCC(N)=O)NC(=O)CNC(=O)[C@H](CO)NC(=O)[C@H](Cc4c[nH]cn4)NC(=O)[C@H](CCCCN)NC1=O)C(=O)N[C@@H](CC(C)C)C(=O)N[C@@H](CCCCN)C(=O)N1CCC[C@H]1C(=O)N3)NC(=O)[C@H](CCCCN)NC(=O)CNC(=O)[C@H](CC(N)=O)NC(=O)[C@H](CCSC)NC2=O)C(C)C [MeuKTX, reference compound] (H-VGINVKCKHSGQCLKPCKDAGMRFGKCMNGKCDCTPK-OH; disulfide 7-27, 13-32, 17-34 (inferred); N-terminus and C-terminus assumed)",inhibition of hKv1.1 channel currents,hKv1.1 channel,90.7 ± 1.1%
same,inhibition of hKv1.3-M2 channel currents,[1]; 100 nM peptide,78.3 ± 4.9%
same,inhibition of hKv1.3-M2 channel currents,[1]; 1 μM peptide,95.9 ± 1.3%
same,inhibition of hKv1.6 channel currents,hKv1.6 channel,77.4 ± 2.7%
same,inhibition of hKv1.2 channel currents,hKv1.2 channel,14.6 ± 2.6%
same,inhibition of hKv1.3-M1 channel currents,[2]; 100 nM peptide,45.7 ± 7.9%
same,inhibition of hKv1.3-M1 channel currents,[2]; 1 μM peptide,82.8 ± 6.1%
same,inhibition of hKv1.3-M3 channel currents,[3]; 100 nM peptide,3.9 ± 0.21%
same,inhibition of hKv1.3-M3 channel currents,[3]; 1 μM peptide,16.1 ± 2.0%
MeuKTX peptide,"IC50 of inhibition of hKv1.3 channel currents (whole-cell patch clamp, HEK293T)",[4],2.63 nM
same,"inhibition of hKv1.1 channel currents by 1 μM peptide (whole-cell patch clamp, HEK293T)",hKv1.1 channel (human),90.7%
same,"inhibition of hKv1.2 channel currents by 1 μM peptide (whole-cell patch clamp, HEK293T)",hKv1.2 channel (human),14.6%
same,"inhibition of hKv1.6 channel currents by 1 μM peptide (whole-cell patch clamp, HEK293T)",hKv1.6 channel (human),77.4%
"CC[C@H](C)[C@H](NC(=O)CNC(=O)[C@@H](N)C(C)C)C(=O)N[C@@H](CC(N)=O)C(=O)N[C@H](C(=O)N[C@@H](CCCCN)C(=O)N[C@H]1CSSC[C@@H]2NC(=O)[C@H](CCCCN)NC(=O)CNC(=O)[C@H](Cc3ccccc3)NC(=O)[C@H](CCCNC(=N)N)NC(=O)[C@H](CCSC)NC(=O)CNC(=O)[C@H](C)NC(=O)[C@H](CC(=O)O)NC(=O)[C@H](CCCCN)NC(=O)[C@@H]3CSSC[C@@H](C(=O)N[C@H](C(=O)N4CCC[C@H]4C(=O)N[C@@H](CCCCN)C(=O)NCC(=O)O)[C@@H](C)O)NC(=O)[C@H](CC(=O)O)NC(=O)[C@H](CSSC[C@H](NC(=O)[C@H](CCC(N)=O)NC(=O)CNC(=O)[C@H](CO)NC(=O)[C@H](Cc4c[nH]cn4)NC(=O)[C@H](CCCCN)NC1=O)C(=O)N[C@@H](CC(C)C)C(=O)N[C@@H](CCCCN)C(=O)N1CCC[C@H]1C(=O)N3)NC(=O)[C@H](CCCCN)NC(=O)CNC(=O)[C@H](CC(N)=O)NC(=O)[C@H](CCSC)NC2=O)C(C)C [BmK-NSPK-7K] (H-VGINVKCKHSGQCLKPCKDAGMRFGKCMNGKCDCTPKG-OH; disulfide 7-27, 13-32, 17-34 (inferred); N-terminus and C-terminus assumed)",inhibition of hKv1.1 channel currents,hKv1.1 channel,84.1 ± 7.0%
same,inhibition of hKv1.3-M2 channel currents,[1]; 100 nM peptide,35.4 ± 6.7%
same,inhibition of hKv1.3-M2 channel currents,[1]; 1 μM peptide,72.9 ± 7.0%
same,inhibition of hKv1.6 channel currents,hKv1.6 channel,79.2 ± 2.4%
same,inhibition of hKv1.2 channel currents,hKv1.2 channel,9.2 ± 0.6%
same,inhibition of hKv1.3-M1 channel currents,[2]; 100 nM peptide,23.4 ± 3.4%
same,inhibition of hKv1.3-M1 channel currents,[2]; 1 μM peptide,78.8 ± 3.4%
same,inhibition of hKv1.3-M3 channel currents,[3]; 100 nM peptide,1.2 ± 0.21%
same,inhibition of hKv1.3-M3 channel currents,[3]; 1 μM peptide,7.4 ± 0.64%
KTX-3 peptide (from UniProt P59290 1-37),"IC50 of inhibition of hKv1.3 channel currents (whole-cell patch clamp, HEK293T)",[4],0.46 nM
same,"inhibition of hKv1.3 channel currents by 1 μM peptide (whole-cell patch clamp, HEK293T)",[4],91.6%
KTX-2 peptide (from UniProt P45696 23-59),"IC50 of inhibition of hKv1.3 channel currents (whole-cell patch clamp, HEK293T)",[4],0.32 nM
same,"inhibition of hKv1.3 channel currents by 1 μM peptide (whole-cell patch clamp, HEK293T)",[4],94.9%
BmK-NSPK peptide,"inhibition of hKv1.3 channel currents by 1 μM peptide (whole-cell patch clamp, HEK293T)",[4],2.3%
same,"inhibition of hKv1.1 channel currents by 1 μM peptide (whole-cell patch clamp, HEK293T)",hKv1.1 channel (human),1.2%
same,"inhibition of hKv1.2 channel currents by 1 μM peptide (whole-cell patch clamp, HEK293T)",hKv1.2 channel (human),1.7%
same,"inhibition of hKv1.6 channel currents by 1 μM peptide (whole-cell patch clamp, HEK293T)",hKv1.6 channel (human),5.4%
BmK-NSPK-I18K/I26K/K28M (peptide),"inhibition of hKv1.3 channel currents by 1 μM peptide (whole-cell patch clamp, HEK293T)",[5],26.5%
